Where two headings read alike, the source gives them in different places.
How the values were obtained:
[1] = target: T1, Human recombinant Top1 (Homo sapiens, UniProt P11387); test: Topoisomerase I-mediated DNA cleavage reactions; format: biochemical; set-up: key to Top1 cleavage: 0: no activity; +: weak activity; ++: similar activity as CPT; +++ and ++++: greater activity than CPT; ++++: similar activity as 1 uM CPT; conditions: for Top1 cleavage: semiquantitative, relative to 1 uM CPT, concentrations ranging up to 10 uM
T1 construct: made in house
T1 sequence (P11387 1-765): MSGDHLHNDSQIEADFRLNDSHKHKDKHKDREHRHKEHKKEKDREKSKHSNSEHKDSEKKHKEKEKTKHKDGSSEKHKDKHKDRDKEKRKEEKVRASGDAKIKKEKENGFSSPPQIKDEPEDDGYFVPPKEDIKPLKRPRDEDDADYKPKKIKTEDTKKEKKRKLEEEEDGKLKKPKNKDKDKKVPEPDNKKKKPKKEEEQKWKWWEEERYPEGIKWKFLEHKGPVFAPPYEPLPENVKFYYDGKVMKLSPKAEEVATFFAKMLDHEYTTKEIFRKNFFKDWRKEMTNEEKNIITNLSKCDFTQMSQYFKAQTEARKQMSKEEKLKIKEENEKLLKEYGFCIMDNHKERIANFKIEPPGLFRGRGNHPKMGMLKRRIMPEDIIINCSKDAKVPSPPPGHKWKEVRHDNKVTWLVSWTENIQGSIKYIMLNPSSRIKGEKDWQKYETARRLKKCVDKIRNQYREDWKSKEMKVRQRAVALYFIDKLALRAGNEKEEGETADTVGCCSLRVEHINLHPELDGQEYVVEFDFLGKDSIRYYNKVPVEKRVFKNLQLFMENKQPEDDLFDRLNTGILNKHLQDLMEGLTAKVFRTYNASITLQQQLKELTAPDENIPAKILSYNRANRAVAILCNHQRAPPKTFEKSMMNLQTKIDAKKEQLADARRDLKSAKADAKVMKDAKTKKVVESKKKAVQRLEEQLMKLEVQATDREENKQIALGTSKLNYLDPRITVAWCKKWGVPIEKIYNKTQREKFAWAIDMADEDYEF
Procedure: Norindenoisoquinolines 14a-f are examined for induction of Top1-mediated DNA cleavage using a 117-bp DNA oligonucleotide encompassing the previously identified Top1 cleavage sites in the 161-bp fragment from pBluescript SK(−) phagemid DNA (Dexheimer & Pommier DNA Cleavage Assay for the Identification of Topoisomerase I Inhibitors. Nat. Protocol. 2008, 3, 1736-1750).
Human recombinant Top1 was purified from baculovirus as previously described.^46 DNA cleavage reactions were prepared as previously reported with the exception of the DNA substrate.^13 Briefly, a 117-bp DNA oligonucleotide (Integrated DNA Technologies) encompassing the previously identified Top1 cleavage sites in the 161-bp fragment from pBluescript SK(−) phagemid DNA was employed. This 117-bp oligonucleotide contains a single 5′-cytosine overhang, which was 3′-end labeled by fill-in reaction with [α-^32P]-dGTP in React 2 buffer (50 mM Tris-HCl, pH 8.0, […], 50 mM NaCl) with 0.5 units of DNA polymerase I (Klenow fragment, New England BioLabs). Unincorporated ^32P-dGTP was removed using mini Quick Spin DNA columns (Roche, Indianapolis, Ind.), and the eluate containing the 3′-end-labeled DNA substrate was collected. Approximately 2 nM of radiolabeled DNA substrate was incubated with recombinant Top1 in 20 μL of reaction buffer [10 mM Tris-HCl (pH 7.5), 50 mM KCl, 5 mM MgCl2, 0.1 mM EDTA, and 15 μg/ml BSA] at 25° C. for 20 min in the presence of various concentrations of compounds. The reactions were terminated by adding SDS (0.5% final concentration) followed by the addition of two volumes of loading dye (80% formamide, 10 mM sodium hydroxide, 1 mM sodium EDTA, 0.1% xylene cyanol, and 0.1% bromphenol blue). Aliquots of each reaction were subjected to 20% denaturing PAGE. Gels were dried and visualized by using a Phosphoimager and ImageQuant software (Molecular Dynamics). For simplicity, cleavage sites were numbered as previously described in the 161-bp fragment.

[2] = tested on: MDA-MB-435; test: NCI DTP antiproliferative screen, breast MDA-MB-435; format: cell-based; conditions: Homo sapiens
Procedure: (§1) The norindenoisoquinolines are examined for antiproliferative activity in the National Cancer Institute's Developmental Therapeutics Program (DTP) (Boyd & Paull, Some Practical Considerations and Applications of the National Cancer Institute In Vitro Anticancer Drug Discovery Screen. Drug Development Res. 1995, 34, 91-109; Shoemaker, The NCI60 Human Tumour Cell Line Anticancer Drug screen. Nat. Rev. Cancer 2006, 6, 813-823). Each compound is evaluated against approximately 55 human cell lines representing leukemia, melanoma, and cancers of the lung, colon, brain, breast, ovary, prostate and kidney. After an initial one-dose assay at a single high dose (10^−5 M), only compounds that satisfy the pre-determined threshold inhibition criteria are selected for further 5-dose assay.

[3] = tested on: UACC-62; test: NCI DTP antiproliferative screen, melanoma UACC-62; format: cell-based, human
Procedure: as §1

[4] = tested on: HCT-116; test: NCI DTP antiproliferative screen, colon HCT-116; format: cell-based, human
Procedure: as §1

[5] = tested on: HOP-62; test: NCI DTP antiproliferative screen, lung HOP-62; format: cell-based, human
Procedure: as §1

[6] = tested on: DU-145; test: NCI DTP antiproliferative screen, prostate DU-145; format: cell-based, human
Procedure: as §1

[7] = tested on: SN12C; test: NCI DTP antiproliferative screen, renal SN12C; format: cell-based, human
Procedure: as §1

[8] = tested on: OVCAR-3; test: NCI DTP antiproliferative screen, ovarian OVCAR-3; format: cell-based, human
Procedure: as §1

[9] = tested on: all human cancer cell lines successfully tested; test: NCI DTP antiproliferative screen, mean graph midpoint; format: cell-based; conditions: average GI50 of all cell lines tested; values outside 10^-8 to 10^-4 M taken as the limits
Procedure: as §1

[10] = tested on: SF-539; test: NCI DTP antiproliferative screen, CNS SF-539; format: cell-based, human
Procedure: as §1

[11] = 117-bp DNA substrate, gel of FIG. 2
[12] = MDA-MB-435, read-out: Cytotoxicity GI50 Breast MDA-MB-435
[13] = Homo sapiens, UACC-62, read-out: Cytotoxicity GI50 Melanoma UACC-62
[14] = Homo sapiens, HCT-116, read-out: Cytotoxicity GI50 Colon HCT-116
[15] = Homo sapiens, HOP-62, read-out: Cytotoxicity GI50 Lung HOP-62
[16] = Homo sapiens, DU-145, read-out: Cytotoxicity GI50 Prostate DU-145
[17] = Homo sapiens, SN12C, read-out: Cytotoxicity GI50 Renal SN12C
[18] = Homo sapiens, OVCAR-3, read-out: Cytotoxicity GI50 Ovarian OVCAR-3
[19] = Homo sapiens, read-out: Cytotoxicity GI50 CNS SF-539

| SMILES | melting point | Top1 cleavage [1] | 106 (C-T) cleavage site in Top1-mediated DNA cleavage pattern [1, 11] | 44 (C-G) cleavage site in Top1-mediated DNA cleavage pattern [1, 11] | GI50 [2, 12] | GI50 [3, 13] | GI50 [4, 14] | GI50 [5, 15] | GI50 [6, 16] | GI50 [7, 17] | GI50 [8, 18] | MGM (mean graph midpoint for growth inhibition) [9] | GI50 [10, 19] | also measured |
| --- | --- | --- | --- | --- | --- | --- | --- | --- | --- | --- | --- | --- | --- | --- |
| COc1cc2c3c(n(CCCNCCO)c(=O)c2cc1OC)-c1cc2c(cc1C3=O)OCO2 [MJ-III-65, reference compound] |  |  |  | seen |  |  |  |  |  |  |  |  |  | 62 (C-A) cleavage site in Top1-mediated DNA cleavage pattern [1, 11]: observed |
| COc1cc2cnc3c(c2cc1OC)Cc1cc2c(cc1-3)OCO2 [Compound 5, reference compound] |  |  | observed | seen |  |  |  |  |  |  |  |  |  | 97 (T-A) cleavage site in Top1-mediated DNA cleavage pattern [1, 11]: observed |
| CC[C@@]1(O)C(=O)OCc2c1cc1n(c2=O)Cc2cc3ccccc3nc2-1 [CPT, camptothecin, reference compound] |  | ++++ |  | not |  |  |  |  |  |  |  | 0.0405 µM |  | GI50 ([2]; MDA-MB-435, Table 2, read-out: Cytotoxicity GI50 Breast MDA-MB-435): 40 nM; GI50 ([3]; Homo sapiens, UACC-62, Table 2, read-out: Cytotoxicity GI50 Melanoma UACC-62): 10 nM; GI50 ([4]; Homo sapiens, HCT-116, Table 2, read-out: Cytotoxicity GI50 Colon HCT-116): 30 nM; 37 (T-G) cleavage site in Top1-mediated DNA cleavage pattern [1, 11]: observed; GI50 ([5]; Homo sapiens, HOP-62, Table 2, read-out: Cytotoxicity GI50 Lung HOP-62): 10 nM; GI50 ([6]; Homo sapiens, DU-145, Table 2, read-out: Cytotoxicity GI50 Prostate DU-145): 10 nM; GI50 ([7]; Homo sapiens, SN12C, Table 2, read-out: Cytotoxicity GI50 Renal SN12C): 20 nM; GI50 ([10]; Homo sapiens, Table 2, read-out: Cytotoxicity GI50 CNS SF-539): 10 nM |
| COc1cc2cnc3c(c2cc1OC)Cc1c-3cc2c(c1C)OCO2 [Compound 15, 2,3-Dimethoxy-8,9-methylenedioxy-10-methyl-11H-indeno[1,2-c]isoquinoline] | 272 to 274 °C (dec.) | ++ | observed | seen | > 100000 nM | 700 nM | 890 nM | 7300 nM | > 100000 nM | > 100000 nM | 5800 nM | 11.8 µM | 4600 nM | 97 (T-A) cleavage site in Top1-mediated DNA cleavage pattern [1, 11]: observed |
| COc1cc2cnc3c(c2cc1OC)Cc1c-3cc2c(c1CN(C)CCN(C)C)OCO2 [Compound 14f, 2,3-Dimethoxy-8,9-methylenedioxy-10-(N,N,N′-trimethylethylenediamino)methyl-11H-indeno[1,2-c]isoquinoline] |  |  |  |  |  |  |  |  |  |  |  | 6.3 µM |  | GI50 [3]: 730 nM; GI50 [4]: 1900 nM; GI50 [5]: 1500 nM; GI50 [6]: 3400 nM; GI50 [7]: > 100000 nM; GI50 [8]: 7400 nM; GI50 [10]: 11000 nM |

More lines, main results first:

| melting point | Top1 cleavage [1] | 106 (C-T) cleavage site in Top1-mediated DNA cleavage pattern [1, 11] | SMILES | 44 (C-G) cleavage site in Top1-mediated DNA cleavage pattern [1, 11] | GI50 [2, 12] | GI50 [3, 13] | GI50 [4, 14] | GI50 [5, 15] | GI50 [6, 16] | GI50 [7, 17] | GI50 [8, 18] | MGM (mean graph midpoint for growth inhibition) [9] | GI50 [10, 19] | also measured |
| --- | --- | --- | --- | --- | --- | --- | --- | --- | --- | --- | --- | --- | --- | --- |
| 210 °C (dec.) | +++ |  | COc1cc2cnc3c(c2cc1OC)Cc1c-3cc2c(c1CN1CCCC1)OCO2 [Compound 14b, 2,3-Dimethoxy-8,9-methylenedioxy-10-(pyrrolidin-1-yl)methyl-11H-indeno[1,2-c]isoquinoline] |  | 2500 nM | 6700 nM | 640 nM | 1200 nM | 730 nM | 4400 nM | 730 nM | 2.3 µM | 1900 nM |  |
|  | + | absent | COc1cc2cnc3c(c2cc1OC)Cc1c-3cc2c(c1CN1CCOCC1)OCO2 [Compound 14e, 2,3-Dimethoxy-8,9-methylenedioxy-10-(4-morpholino)methyl-11H-indeno[1,2-c]isoquinoline] |  |  |  |  |  |  |  |  | 2.4 µM |  | GI50 [3]: ≥ 100000 nM; GI50 [4]: 1400 nM; GI50 [5]: 2100 nM; GI50 [6]: 1900 nM; GI50 [7]: 2300 nM; GI50 [8]: 1700 nM; GI50 [10]: 1800 nM |
| 205 to 207 °C | +++ |  | COc1cc2cnc3c(c2cc1OC)Cc1c-3cc2c(c1CN(C)C)OCO2 [Compound 14a, 2,3-Dimethoxy-8,9-methylenedioxy-10-(dimethylamino)methyl-11H-indeno[1,2-c]isoquinoline] |  | 16000 nM | 12000 nM | 1500 nM | 6700 nM | 1600 nM | 13000 nM | 1400 nM | 4.4 µM | 14000 nM |  |
| 296 °C (dec.) | ++ | absent | COc1cc2cnc3c(c2cc1OC)Cc1c-3cc2c(c1CN1CCN(C)CC1)OCO2 [Compound 14d, 2,3-Dimethoxy-8,9-methylenedioxy-10-(4-methylpiperazin-1-yl)methyl-11H-indeno[1,2-c]isoquinoline] |  |  |  |  |  |  |  |  |  |  |  |

Source: patent US9206193B2, “Substituted norindenoisoquinolines, syntheses thereof, and methods of use” (PURDUE RESEARCH FOUNDATION, priority 2010, dated 2015)
